Like-named read-outs stand apart in the source and are kept apart here.
Conditions: amide bond, 33-membered ring, BOP/DMAP

CCCC[C@@H]1NC(=O)[C@H](CO)N(C)C(=O)[C@H](C(C)C)N(C)C(=O)[C@H](CC(C)C)N(C)C(=O)[C@H](CC(C)C)N(C)C(=O)[C@@H](C)NC(=O)[C@H](C)NC(=O)[C@H](CC(C)C)N(C)C(=O)[C@H](C(C)C)NC(=O)[C@H](CC(C)C)N(C)C(=O)CN(C)C1=O
ring closure, isolated yield (from H-MeSer-Nle-Sar-MeLeu-Val-MeLeu-Ala-dAla-MeLeu-MeLeu-MeVal-OH, THF/CH2Cl2 1:1, 0.433 mM): 16%

CC[C@@H]1NC(=O)[C@H](CCNC(=O)OCC2c3ccccc3-c3ccccc32)NC(=O)[C@H](C(C)C)N(C)C(=O)[C@H](CC(C)C)N(C)C(=O)[C@H](CC(C)C)N(C)C(=O)[C@@H](C)NC(=O)[C@H](C)NC(=O)[C@H](CC(C)C)N(C)C(=O)[C@H](C(C)C)NC(=O)[C@H](CC(C)C)N(C)C(=O)CN(C)C1=O
ring closure, isolated yield (from H-Dab(Fmoc)-Abu-Sar-MeLeu-Val-MeLeu-Ala-dAla-MeLeu-MeLeu-MeVal-OH, CH2Cl2, 0.165 mM): 37%

CC[C@@H]1NC(=O)[C@@H]2C[C@@H](O)CN2C(=O)[C@H](C(C)C)N(C)C(=O)[C@H](CC(C)C)N(C)C(=O)[C@H](CC(C)C)N(C)C(=O)[C@@H](C)NC(=O)[C@H](C)NC(=O)[C@H](CC(C)C)N(C)C(=O)[C@H](C(C)C)NC(=O)[C@H](CC(C)C)N(C)C(=O)CN(C)C1=O
ring closure, isolated yield (from H-Hyp-Abu-Sar-MeLeu-Val-MeLeu-Ala-dAla-MeLeu-MeLeu-MeVal-OH, CH2Cl2, 0.35 mM): 30%

CC[C@@H]1NC(=O)[C@H](CO)N(C)C(=O)[C@H](C(C)C)N(C)C(=O)[C@H](CC(C)C)N(C)C(=O)[C@H](CC(C)C)N(C)C(=O)[C@@H](C)NC(=O)[C@H](C)NC(=O)[C@H](CC(C)C)N(C)C(=O)[C@H](C(C)C)NC(=O)[C@H](CC(C)C)N(C)C(=O)CN(C)C1=O
ring closure, isolated yield (from H-MeSer-Abu-Sar-MeLeu-Val-MeLeu-Ala-dAla-MeLeu-MeLeu-MeVal-OH, CH2Cl2, 0.176 mM): 15%

CCC[C@@H]1NC(=O)[C@H](CO)N(C)C(=O)[C@H](C(C)C)N(C)C(=O)[C@H](CC(C)C)N(C)C(=O)[C@H](CC(C)C)N(C)C(=O)[C@@H](C)NC(=O)[C@H](C)NC(=O)[C@H](CC(C)C)N(C)C(=O)[C@H](C(C)C)NC(=O)[C@H](CC(C)C)N(C)C(=O)CN(C)C1=O
ring closure, isolated yield (from H-MeSer-Nva-Sar-MeLeu-Val-MeLeu-Ala-dAla-MeLeu-MeLeu-MeVal-OH, CH2Cl2/THF 1:1, 3.9 mM): 20%

CCCC[C@@H]1NC(=O)[C@H]([C@@H](C)O)N(C)C(=O)[C@H](C(C)C)N(C)C(=O)[C@H](CC(C)C)N(C)C(=O)[C@H](CC(C)C)N(C)C(=O)[C@@H](C)NC(=O)[C@H](C)NC(=O)[C@H](CC(C)C)N(C)C(=O)[C@H](C(C)C)NC(=O)[C@H](CC(C)C)N(C)C(=O)CN(C)C1=O
ring closure, isolated yield (from H-MeThr-Nle-Sar-MeLeu-Val-MeLeu-Ala-dAla-MeLeu-MeLeu-MeVal-OH, CH2Cl2, 0.325 mM): 14%

CCCC[C@@H]1NC(=O)[C@@H]2C[C@@H](O)CN2C(=O)[C@H](C(C)C)N(C)C(=O)[C@H](CC(C)C)N(C)C(=O)[C@H](CC(C)C)N(C)C(=O)[C@@H](C)NC(=O)[C@H](C)NC(=O)[C@H](CC(C)C)N(C)C(=O)[C@H](C(C)C)NC(=O)[C@H](CC(C)C)N(C)C(=O)CN(C)C1=O
ring closure, isolated yield (from H-Hyp-Nle-Sar-MeLeu-Val-MeLeu-Ala-dAla-MeLeu-MeLeu-MeVal-OH, CH2Cl2, 0.4 mM): 26%
